Here are results for 11 molecules from patent US12441733B2, “Substituted 2,4-dioxotetrahydropyrimidines as intermediates in the synthesis of bruton's tyrosine kinase inhibitors” (Novartis AG, priority 2018, dated 2025).

Molecules are shown by their SMILES.

The assay has as its target T1, BTK(C481S)-GFP (Homo sapiens, UniProt Q06187+Q96SW2, C481S).
T1 construct: CHYSEL (cis-acting hydrolase element, 2A) remnant after GFP; mCherry is split off as a separate protein (C); expressed in transfected cells; host or cells: TMD8 cells, lentiviral transduction with pLenti6-BTK(C481S)-GFP-CHYSEL-mCherry
As to the kind of experiment: BTK(C481S)-GFP protein abundance flow cytometry assay in TMD8 cells. In kind it is cell-based. Conditions: TMD8 cells expressing BTK(C481S)-GFP; for DC50: GFP signal by flow cytometry; for BTK (C481S) Amax: % protein remaining at maximum degradation. The protocol:
Compounds of the invention were tested in the following cellular assays. The terms in Table 2 are defined as follows: DC50 refers to the concentration at which 50% maximal degradation was observed; deg Amax is the extent of degradation and the value refers to the % protein remaining at the concentration at which maximum degradation is seen; ProI GI50 refers to the proliferation data and defines the concentration at which 50% growth inhibition was observed compared to the vehicle treated control at the end of the incubation time. TMD8 cells are BTK dependent and OCI-LY3 cells are BTK independent.
Btk(C481S)-GFP Protein Abundance Flow Cytometry Assay in TMD8 Cells:
Degradation of BTK(C481S) was measured in TMD8 cells expressing BTK(C481S)-GFP and mCherry from a stably integrated second generation bicistronic BTK(C481S)-GFP-CHYSEL-mCherry construct. Reduction of the […] measured by flow cytometry served as readout for BTK(C481S) degradation after degrader treatment.
Cloning of the pLenti6-BTK(C481)-GFP-CHYSEL-mCherry Sensor Vectors
The BTK(C481 S) protein abundance sensor is based on a second generation bicistronic construct, where the 2 reading frames BTK(C481S) and mCherry control are separated by a cis-acting hydrolase element (see: Lo et al., 2015 Cell Reports 13, 2634), replacing the Ires from the first generation vector described before.
The bicistronic BTK(C481S)-GFP-CHYSEL-mCherry construct is based on a pLenti6-DEST vector backbone where a GFP-CHYSEL-mCherry cassette was synthesized and inserted downstream of the DEST cassette by Gibson assembly resulting in the new gateway compatible vector pLenti6-DEST-GFP-CHYSEL-mCherry to allow Gateway cloning with pENTR221-BTK(C48S)(STOP-Leu) to obtain the final sensor construct pLenti6-BTK(C481S)-GFP-CHYSEL-mCherry. The pENTR221-BTK(C481S)(STOP-Leu) was generated by mutating wild-type BTK to BTK(C481S) with a mutagenesis reaction on pENTR221-BTK (STOP-Leu) with the following primers (BTK C481S Quikchange fw, gagtacatggccaatggctCcctcctgaactacctgagg (SEQ ID NO: 7); BTK C481S Quikchange REVC, cctcaggtagttcaggaggGagccattggccatgtactc (SEQ ID NO: 8)) using the QuikChange Lightning mutagenesis kit (Agilent Technologies #210518) performed according to the manufacturer's manual, resulting in pENTR221-BTK(C481S)(STOP-Leu).
Sequence of the synthesized construct (Xho1 sites are shown in bold, mCherry-ORF is shown in small letters):
Engineering of Stably Expressing TMD8 BTK(C481 S-GFP-CHYSEL-mCherry Sensor Cells
TMD8 BTK(C481S)-GFP-CHYSEL-mCherry sensor cells were generated by lentiviral vector transduction using the pLenti6-BTK(C4818)-GFP-CHYSEL-mCherry sensor construct described before. Lentiviral particles were produced in HEK293FT cells (Invitrogen R70007) by co-transfection of 500 ng pLenti6-BTK-GFP-Ires-RFP or pLenti6-IKZF3-GFP-Ires-RFP, 500 ng delta8.71 and 200 ng pVSVG diluted in 100 μl OptiMEM serum free medium (Invitrogen #11058-021) that was mixed after 5 min preincubation with 3 μl of Lipofectamine2000 (Invitrogen #11668-019) in 97 μl OptiMEM serum free medium. The mix was incubated for another 20 min at RT and then added to 1 ml of a freshly prepared suspension of HEK293FT cells in a well of a 6-well plate (concentration 1.2×10^6 cells/ml). 1 day after transfection, the medium was replaced with 1.5 ml of complete growth medium (DMEM high Glucose+10% FCS+1% L-Glutamine+1% NEAA+1% NaPyr.). 48 h post transfection supernatant containing viral transducing particles was collected and frozen at −80° C.
Two days before transduction with viral particles 1×10^5 HEK293A cells (Invitrogen R7057) were seeded in 2 ml growth medium in a well of a 6-well plate. Infection was performed with 90 μl of collected supernatant containing viral transducing particles in 1 ml medium including 8 μg/ml polybrene. 24 h post infection, stably transfected cells were selected with blasticidin at a concentration of 8 μg/ml.
(In general: A flow cytometer gives signals particle by particle.)

T1 sequence (Q06187 whole entry C481S): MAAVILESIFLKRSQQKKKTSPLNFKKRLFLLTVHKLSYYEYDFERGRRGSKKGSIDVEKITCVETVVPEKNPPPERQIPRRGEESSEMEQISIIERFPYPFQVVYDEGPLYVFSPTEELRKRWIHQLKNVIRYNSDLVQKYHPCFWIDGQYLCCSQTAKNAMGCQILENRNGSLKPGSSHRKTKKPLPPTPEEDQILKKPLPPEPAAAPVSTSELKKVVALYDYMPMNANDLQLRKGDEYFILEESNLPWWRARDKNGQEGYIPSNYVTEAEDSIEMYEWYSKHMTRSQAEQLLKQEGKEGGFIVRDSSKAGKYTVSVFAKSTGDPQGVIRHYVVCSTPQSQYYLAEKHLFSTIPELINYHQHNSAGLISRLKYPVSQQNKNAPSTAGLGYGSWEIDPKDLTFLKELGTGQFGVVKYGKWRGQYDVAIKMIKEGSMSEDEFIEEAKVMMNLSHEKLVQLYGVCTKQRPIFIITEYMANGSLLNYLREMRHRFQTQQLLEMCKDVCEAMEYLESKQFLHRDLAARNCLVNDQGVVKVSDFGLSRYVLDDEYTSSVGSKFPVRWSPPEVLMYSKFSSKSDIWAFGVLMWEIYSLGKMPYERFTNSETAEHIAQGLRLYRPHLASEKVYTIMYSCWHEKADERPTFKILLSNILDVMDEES
T1 sequence (Q96SW2 whole entry): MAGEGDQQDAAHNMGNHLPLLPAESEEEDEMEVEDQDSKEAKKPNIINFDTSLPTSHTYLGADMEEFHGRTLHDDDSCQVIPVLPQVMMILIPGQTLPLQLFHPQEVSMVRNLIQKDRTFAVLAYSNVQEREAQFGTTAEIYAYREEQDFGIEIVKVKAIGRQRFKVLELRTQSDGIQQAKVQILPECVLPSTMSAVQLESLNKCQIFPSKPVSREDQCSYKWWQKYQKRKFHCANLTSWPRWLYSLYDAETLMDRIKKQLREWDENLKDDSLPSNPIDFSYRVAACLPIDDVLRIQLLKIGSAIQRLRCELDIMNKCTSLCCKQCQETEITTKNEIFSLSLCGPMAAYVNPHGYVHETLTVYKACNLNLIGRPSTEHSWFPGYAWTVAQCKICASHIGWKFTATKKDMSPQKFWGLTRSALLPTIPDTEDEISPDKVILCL
T1 sequence (Q16531 whole entry partner): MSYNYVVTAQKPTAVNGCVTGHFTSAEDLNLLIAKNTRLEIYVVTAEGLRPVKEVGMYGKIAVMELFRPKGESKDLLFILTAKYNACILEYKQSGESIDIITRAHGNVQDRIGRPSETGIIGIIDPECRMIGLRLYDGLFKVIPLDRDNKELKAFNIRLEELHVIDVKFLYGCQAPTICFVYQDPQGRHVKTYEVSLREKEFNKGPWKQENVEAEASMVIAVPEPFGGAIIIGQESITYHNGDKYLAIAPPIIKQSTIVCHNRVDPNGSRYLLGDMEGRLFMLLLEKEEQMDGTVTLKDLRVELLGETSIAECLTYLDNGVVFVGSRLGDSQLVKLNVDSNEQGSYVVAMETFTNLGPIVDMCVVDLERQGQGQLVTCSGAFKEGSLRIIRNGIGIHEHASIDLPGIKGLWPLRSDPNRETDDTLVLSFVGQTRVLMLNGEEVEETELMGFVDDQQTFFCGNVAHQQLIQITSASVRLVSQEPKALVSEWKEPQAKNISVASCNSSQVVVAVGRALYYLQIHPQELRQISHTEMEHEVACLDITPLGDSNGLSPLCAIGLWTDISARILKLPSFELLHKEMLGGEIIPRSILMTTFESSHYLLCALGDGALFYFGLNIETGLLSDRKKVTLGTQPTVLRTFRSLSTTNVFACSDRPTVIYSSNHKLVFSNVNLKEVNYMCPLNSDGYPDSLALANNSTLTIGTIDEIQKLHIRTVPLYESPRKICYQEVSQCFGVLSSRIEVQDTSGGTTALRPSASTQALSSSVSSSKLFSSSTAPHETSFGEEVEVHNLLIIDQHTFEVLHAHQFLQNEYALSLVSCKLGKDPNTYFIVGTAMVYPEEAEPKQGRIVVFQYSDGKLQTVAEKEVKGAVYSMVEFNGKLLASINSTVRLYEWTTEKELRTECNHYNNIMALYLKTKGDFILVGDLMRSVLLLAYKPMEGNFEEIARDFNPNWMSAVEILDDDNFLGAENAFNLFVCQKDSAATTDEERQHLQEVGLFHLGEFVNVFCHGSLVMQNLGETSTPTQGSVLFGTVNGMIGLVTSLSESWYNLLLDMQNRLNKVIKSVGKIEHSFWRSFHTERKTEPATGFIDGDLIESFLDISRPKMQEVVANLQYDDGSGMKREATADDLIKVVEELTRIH

On to `COc1ccc(C(=O)N2CCC3(CCN(Cc4ccc(-c5cc6c(-c7cc(F)cc(NC(=O)c8ccc(C(C)(C)O)cc8F)c7C)ncnc6[nH]5)cc4)CC3)CC2)cc1N1CCC(=O)NC1=O` [Compound 9, N-(3-(6-(4-((9-(3-(2,4-Dioxotetrahydropyrimidin-1(2H)-yl)-4-methoxybenzoyl)-3,9-diazaspiro[5.5]undecan-3-yl)methyl)phenyl)-7H-pyrrolo[2.3-d]pyrimidin-4-yl)-5-fluoro-2-methylphenyl)-2-fluoro-4-(2-hydroxypropan-2-yl)benzamide], for which the DC50 stood at 1.92 nM and the “BTK (C481S) Amax” value was 4.5%.

For the molecule `Cc1c(NC(=O)c2ccc(C(C)(C)O)cc2F)cc(F)cc1-c1ncnc2[nH]c(-c3ccc(CN4CCC5(CC4)CCN(C(=O)c4ccc(F)c(N6CCC(=O)NC6=O)c4)CC5)cc3)cc12` [Compound 14, N-(3-(6-(4-((9-(3-(2,4-Dioxotetrahydropyrimidin-1(2H)-yl)-4-fluorobenzoyl)-3,9-diazaspiro[5.5]undecan-3-yl)methyl)phenyl)-7H-pyrrolo[2.3-d]pyrimidin-4-yl)-5-fluoro-2-methylphenyl)-2-fluoro-4-(2-hydroxypropan-2-yl)benzamide], the DC50 was determined as 1.52 nM and the “BTK (C481S) Amax” value came out at 2.8%.

On to `Cc1c(NC(=O)c2ccc(C(C)(C)O)cc2F)cc(F)cc1-c1ncnc2[nH]c(-c3ccc(CCN4CCC5(CC4)CCN(C(=O)c4cccc(N6CCC(=O)NC6=O)c4)CC5)cc3)cc12` [Compound 12, N-(3-(6-(4-(2-(9-(3-(2,4-Dioxotetrahydropyrimidin-1(2H)-yl)benzoyl)-3,9-diazaspiro[5,5]undecan-3-yl)ethyl)phenyl)-7H-pyrrolo[2,3-d]pyrimidin-4-yl)-5-fluoro-2-methylphenyl)-2-fluoro-4-(2-hydroxypropan-2-yl)benzamide], for which the DC50 worked out at 1.58 nM and the “BTK (C481S) Amax” value was found to be 2.9%.

For `COc1ccc(C(=O)N2CCC3(CCN(CCc4ccc(-c5cc6c(-c7cc(F)cc(NC(=O)c8ccc(C(C)(C)O)cc8F)c7C)ncnc6[nH]5)cc4)CC3)CC2)cc1N1CCC(=O)NC1=O` [Compound 31, N-(3-(6-(4-(2-(9-(3-(2,4-Dioxotetrahydropyrimidin-1(2H)-yl)-4-methoxybenzoyl)-3,9-diazaspiro[5.5]undecan-3-yl)ethyl)phenyl)-7H-pyrrolo[2,3-d]pyrimidin-4-yl)-5-fluoro-2-methylphenyl)-2-fluoro-4-(2-hydroxypropan-2-yl)benzamide], the DC50 turned out to be 1.21 nM and the “BTK (C481S) Amax” value is on record as 3.0%.

On to `CCOc1ccc(C(=O)N2CCC3(CCN(Cc4ccc(-c5cc6c(-c7cc(F)cc(NC(=O)c8ccc(C(C)(C)O)cc8F)c7C)ncnc6[nH]5)cc4)CC3)CC2)cc1N1CCC(=O)NC1=O` [Compound 4, N-(3-(6-(4-((9-(3-(2,4-Dioxotetrahydropyrimidin-1(2H)-yl)-4-ethoxybenzoyl)-3,9-diazaspiro[5.5]undecan-3-yl)methyl)phenyl)-7H-pyrrolo[2,3-d]pyrimidin-4-yl)-5-fluoro-2-methylphenyl)-2-fluoro-4-(2-hydroxypropan-2-yl)benzamide], for which the DC50 was found to be 2.08 nM and the “BTK (C481S) Amax” value amounted to 2.2%.

Consider `Cc1c(NC(=O)c2ccc(C(C)(C)O)cc2F)cc(F)cc1-c1ncnc2[nH]c(-c3ccc(CCN4CCC5(CC4)CCN(C(=O)c4ccc(F)c(N6CCC(=O)NC6=O)c4)CC5)cc3)cc12` [Compound 47, N-(3-(6-(4-(2-(9-(3-(2,4-dioxotetrahydropyrimidin-1(2H)-yl)-4-fluorobenzoyl)-3,9-diazaspiro[5.5]undecan-3-yl)ethyl)phenyl)-7H-pyrrolo[2,3-d]pyrimidin-4-yl)-5-fluoro-2-methylphenyl)-2-fluoro-4-(2-hydroxypropan-2-yl)benzamide], for which the DC50 stood at 0.72 nM and the “BTK (C481S) Amax” value was found to be 2.4%.

For the molecule `COc1ccc(C(=O)N2CCC3(CC2)CCN(C(C)(C)Cc2ccc(-c4cc5c(-c6cc(F)cc(NC(=O)c7ccc(C(C)(C)O)cc7F)c6C)ncnc5[nH]4)cc2)CC3)cc1N1CCC(=O)NC1=O` [Compound 20, N-(3-(6-(4-(2-(9-(3-(2,4-Dioxotetrahydropyrimidin-1(2H)-yl)-4-methoxybenzoyl)-3,9-diazaspiro[5.5]undecan-3-yl)-2-methylpropyl)phenyl)-7H-pyrrolo[2,3-d]pyrimidin-4-yl)-5-fluoro-2-methylphenyl)-2-fluoro-4-(2-hydroxypropan-2-yl)benzamide], the DC50 is 0.68 nM and the “BTK (C481S) Amax” value is recorded as 2.4%.

With `COc1ccc(C(=O)N2CCC(OC3CCN(CCc4ccc(-c5cc6c(-c7cc(F)cc(NC(=O)c8ccc(C(C)(C)O)cc8F)c7C)ncnc6[nH]5)cc4)CC3)CC2)cc1N1CCC(=O)NC1=O` [Compound 34, N-(3-(6-(4-(2-(4-((1-(3-(2,4-Dioxotetrahydropyrimidin-1(2H)-yl)-4-methoxybenzoyl)piperidin-4-yl)oxyl)piperidin-1-yl)ethyl)phenyl)-7H-pyrrolo[2,3-d]pyrimidin-4-yl)-5-fluoro-2-methylphenyl)-2-fluoro-4-(2-hydroxypropan-2-yl)benzamide], the DC50 is 1.94 nM and the “BTK (C481S) Amax” value was 1.6%.

With `Cc1ccc(C(=O)N(C)CCCCCNCc2ccc(-c3cc4c(-c5cc(F)cc(NC(=O)c6ccc(C(C)(C)O)cc6F)c5C)ncnc4[nH]3)cc2)cc1N1CCC(=O)NC1=O` [Compound 30, 3-(2,4-Dioxotetrahydropyrimidin-1(2H)-yl)-N-(5-((4-(4-(5-fluoro-3-(2-fluoro-4-(2-hydroxypropan-2-yl)benzamido)-2-methylphenyl)-7H-pyrrolo[2,3-d]pyrimidin-6-yl)benzyl)amino)pentyl)-N,4-dimethylbenzamide], the DC50 came to 8.18 nM and the “BTK (C481S) Amax” value was 3.1%.

`COc1ccc(C(=O)N2CCC(OC3CCN(Cc4ccc(-c5cc6c(-c7cc(F)cc(NC(=O)c8ccc(C(C)(C)O)cc8F)c7C)ncnc6[nH]5)cc4)CC3)CC2)cc1N1CCC(=O)NC1=O` [Compound 8, N-(3-(6-(4-((4-((1-(3-(2,4-dioxotetrahydropyrimidin-1(2H)-yl)-4-methoxybenzoyl)piperidin-4-yl)oxyl)piperidin-1-yl)methyl)phenyl)-7H-pyrrolo[2,3-d]pyrimidin-4-yl)-5-fluoro-2-methylphenyl)-2-fluoro-4-(2-hydroxypropan-2-yl)benzamide]: the DC50 worked out at 2.08 nM and the “BTK (C481S) Amax” value was determined as 2.7%.

As for `COc1ccc(C(=O)N2CCC(CN3CCC(Oc4ccc(-c5cc6c(-c7cc(F)cc(NC(=O)c8ccc(C(C)(C)O)cc8F)c7C)ncnc6[nH]5)cc4)CC3)CC2)cc1N1CCC(=O)NC1=O` [Compound 19, N-(3-(6-(4-((1-((1-(3-(2,4-Dioxotetrahydropyrimidin-1(2H)-yl)-4-methoxybenzoyl)piperidin-4-yl)methyl)piperidin-4-yl)oxyl)phenyl)-7H-pyrrolo[2,3-d]pyrimidin-4-yl)-5-fluoro-2-methylphenyl)-2-fluoro-4-(2-hydroxypropan-2-yl)benzamide], the DC50 stood at 0.62 nM and the “BTK (C481S) Amax” value was 2.7%.
